How the values were obtained:
THP1 cells = experiment: RNA-seq transcriptome profiling of THP1 cells in high glucose (differential expression, GO, GSEA); format: cell-based, human; conditions: for biological processes (BPs) suppressed (GSEA): HG treated THP1 cells; for number of downregulated genes, compound+HG versus HG / number of upregulated genes, compound+HG versus HG / rank of TXNIP gene among differentially expressed genes / number of HG-induced genes inhibited by the compound (overlap): THP1, 25 mM glucose; for number of downregulated genes, compound+HG versus HG / number of upregulated genes, compound+HG versus HG / rank of TXNIP gene among differentially expressed genes / functions of downregulated genes (Gene ontology analysis): 5 uM; for number of downregulated genes, compound+HG versus HG / number of upregulated genes, compound+HG versus HG / functions of downregulated genes (Gene ontology analysis): fold change ≥2 and FDR<5%; for rank of TXNIP gene among differentially expressed genes: p-value close to 0; for number of HG-induced genes inhibited by the compound (overlap): 72 hours, 2.5 um compound, FC >2 or <0.5, FDR-adjusted p <0.05; for number of HG upregulated genes downregulated by both C30 and C38: THP1, FC≥1.5 & FDR<5%; for functions of downregulated genes (Gene ontology analysis) / normalized enrichment score (NES), HG-downregulated genes (GSEA) / normalized enrichment score (NES), HG-upregulated genes (GSEA): THP1 in HG; for normalized enrichment score (NES), HG-downregulated genes (GSEA) / normalized enrichment score (NES), HG-upregulated genes (GSEA): with versus without compound
Method: FIGS. 10A-10C. C30 and C38 inhibit the same subset of genes induced by high glucose (HG). THP1 cell were cultured in RPMI 1640 medium under 25 mM glucose for 72 hours with […] C30 or C38. Total RNA was prepared and sent for RNA-seq. Differential expression analysis was conducted as described in the Methods. […] FIG. 10A: Overlap between HG-induce genes and C30-inhibited genes in THP1 cells. FIG. 10B: Overlap between HG-induce genes and C38-inhibited genes in THP1 cells. FIG. 10C: Overlap between common genes from FIG. 10A (60 genes) and common genes from FIG. 10B (64 genes).
FIGS. 11A-11B. FIG. 11A: Heatmap of 60 high glucose-responsive and C30/C38-inhibited genes. Differential expression was calculated using these counts with edgeR (5, 6) version 3.0. After correcting for differences in library sizes, a fold change of >1.5 and a p-value of <0.05 were applied to select expressed genes. Overlapped genes were used for generating heatmap using Java TreeView. NG: THP1 under 5 mM glucose; HG: THP1, 25 mM glucose; C30: THP1, 25 mM glucose, 5 uM C30; C38: THP1, 25 mM glucose, 5 uM C38. All are replicates. From top to bottom: HSD11B1, EGR1, NFE2, CCL2, TIFAB, SH2D2A, UHRF1, CD52, TIMP3, TNF, S100P, PAQR4, LY6E, VPS9D-AS, RNASE3, MIR4258, GAS6, LIMD2, MBOAT7, CFD, PKMYT1, CHAC1, MFNG, DEFB1, ICAM2, NT5DC2, GPR35, HINT2, SEPT5-GP1BB, NRSN2, CDH24, SLC37A2, ADAT3, LST1, SPNS3, LTB, H2AFX, FUOM, FAM163A, BATF3, TMEM160, CITED4, MIR3661, TNFSF14, SLC6A9, TONSL, AVEN, SUSD3, TSPO, DDIT4, CKB, SLC22A31, HAAO, MF5SD3, SLC38A5, SIGMAR1, RGMA, DNPH1, ADGRE5, C20orf24, GATA2, RAB37, GDPD5, GAREM2, PIGQ, IMPA2, CRYBB2P1, UCP2, RELB, FOXL2, STC2, HOXA11-AS, MIR1282, RTN2, ZNF511, STARD10, NRM, NF2, ITGB7, POMGNT, KLF10, KLF2, NECAB2, C6orf223, IGFBP4, ACP2, TMEM161A, RHBDD2, YDJC, G0S2, FAM20C, TKTL1, PDIA3P1, HCST, FBXL15, LINC00116, FLNA, TXNIP, MIR3687-1, ARRDC4.
FIG. 21. Volcano plots on gene expression changes induced by TXNIP inhibitors (C30 or C38) under high glucose (HG) conditions in THP1 cells. Gene expression in THP cells grown in HG were treated with and without C30 or C38 and profiled by RNAseq. Expression of RefSeq genes with rpkm≥5 in at least one sample were TMM-normalized and compared in cells treated with HG plus C30 or C38 (C30+HG or C38+HG) versus the cells treated with HG alone using edgeR (v 3.28.1). […] Each dot represents one gene with fold change (in log 2 format) in C30/C38+HG sample vs. HG as x-axis and significance level (in −log 10 format) as y-axis.
FIG. 22. Enriched BPs on DEGs induced by TXNIP inhibitors. […] The enriched BPs were identified at FDR<5% using enrichGO R package and up to 15 BPs with the most significant enrichment are shown as horizontal bar plots. In each bar, number of DEGs in the BP is presented by y-axis and the enrichment significance is represented by different grey-scale colors indicated in the color bar.
FIG. 24. Impact of C30/C38 treatment on HG-regulated genes by GSEA analysis. […] In the analysis for each treatment (C30 or C38), all the expressed genes were ranked based on the signed significance levels, −log10 Pvalue with signs determined by FC (positive if FC>1 and negative if FC<1), on each gene's expression difference between samples with and without treatment. The overall gene expression difference in THP1 cells (in HG condition) treated with or without C30/C38 on these two genesets were analyzed using pre-ranked GSEA analysis.
FIG. 25. […] All the expressed genes were ranked based on the signed significance levels of each gene's expression difference (C30+HG vs. HG). […] In the plot shown, each bubble represents one geneset. […] Genesets related to BPs are represented by solid black bubbles and related to HG regulated genesets are shown as hollow black bubbles.
FIG. 26. […] All the expressed genes were ranked based on the signed significance levels of each gene's expression difference (C38+HG vs. HG). […] In the plot, each bubble represents one geneset. […]

human islets = experiment: BCL2/BAX ratio (apoptosis marker) in human islets under high glucose plus cytokines; format: cell-based; conditions: 25 mM glucose + TNFα, IL1β, IFNγ, 40 hours
Method: FIGS. 18A-18B. C30 and C38 compounds protect cells from apoptosis in human islets. 100 IEQ human islets (Hu 1178) were cultured in PIM(R)© containing NG (5.8 mM glucose) or HG (25 mM glucose), and TNFα (20 ng/ml), IL1β (20 ng/ml), IFNγ (200 ng/ml) for 40 hours with or without lead compounds. Total RNA was prepared and RT PCR performed. FIG. 18A: BCL2/BAX ratios are the mean±SEM from triplicates. Statistical analysis was performed for each column vs. HG, 3 cytokines using one-way ANOVA: *p<0.002. FIG. 18B: TXNIP relative mRNA levels. Data shown are the mean±SEM from triplicates. Statistical analysis was performed for each column vs. HG, 3 cytokines using one-way ANOVA: **p<0.0001.
In T1D, β-cell death involves necrosis and apoptosis. BCL2 limits BAX/BAK oligomerization, to impede the release of several apoptogenic molecules from mitochondria. Also, BCL2 binds to and inactivates BAX and other pro-apoptotic proteins, thereby inhibiting apoptosis. BAX and BAK disrupt the integrity of the mitochondrial outer membrane to promote apoptotic cell death. As such, the BCL2/BAX ratio is used as a marker of cell susceptibility to apoptosis. High levels of this ratio can serve as an indicator of the resistance of human cells to apoptosis. […]

Compound | biological processes (BPs) suppressed (GSEA) (THP1 cells) | number of downregulated genes, compound+HG versus HG (THP1 cells) [genes] | number of upregulated genes, compound+HG versus HG (THP1 cells) [genes] | rank of TXNIP gene among differentially expressed genes (THP1 cells) | number of HG-induced genes inhibited by the compound (overlap) (THP1 cells) [genes] | number of HG upregulated genes downregulated by both C30 and C38 (THP1 cells) [genes] | functions of downregulated genes (Gene ontology analysis) (THP1 cells) | normalized enrichment score (NES), HG-downregulated genes (GSEA) (THP1 cells) | normalized enrichment score (NES), HG-upregulated genes (GSEA) (THP1 cells) | BCL2/BAX ratio (human islets)
COc1cc(N2CC[C@@H](c3ccc4ccccc4c3)[C@H](O)C2)nc(N)n1 [Compound C30] | strongly suppresses BPs related to DNA replication, cell cycle, lipopolysaccharide metabolic process | 571 | 746 | most-significantly downregulated gene | 60 | 23 | substantially inhibit functions related to immune/inflammation response | 1.63 | −1.84 | significantly increased BCL2/BAX ratios
c1ccc(CCNc2ncnc3c2oc2ccccc23)cc1 [Compound C38] | suppressing BPs involved in metabolic process, DNA replication, immune response, splicing | 537 | 741 | most-significantly downregulated gene | 64 | 23 | substantially inhibit functions related to immune/inflammation response | 1.83 | −1.98 | significantly increased BCL2/BAX ratios

— patent US11964984B2, “TXNIP-TRX complex inhibitors and methods of using the same” (CITY OF HOPE, priority 2020, dated 2024)
